Experimental data from patent US4683301A, “Carbapenem antibiotics” (Bristol-Myers Company, priority 1984, dated 1987).
Converted amounts (≈) assume the structure as drawn. Read-outs that look alike come from different tables or passages of the source.

Columns and labels:
K. pneumoniae A20468 = assay: microbe, parasite or virus in culture; settings: Klebsiella pneumoniae
P. mirabilis A-9900 [1] = assay: microbe, parasite or virus in culture; settings: Proteus mirabilis, A9900
H. influenzae A-9833 = assay: In vitro MIC, tube dilution in Nutrient Broth, overnight at 37° C.; type: cell-based; settings: Haemophilus influenzae, A9833
[2] = system: S. aureus A-9606 (Pen-res.); assay: as above; type: cell-based; settings: Staphylococcus aureus
E. coli A15119 [3] = assay: as above; type: cell-based; settings: Escherichia coli
H. influenzae A21522 = assay: as above; type: cell-based; settings: Haemophilus influenzae
P. mirabilis A-9900 [4] = assay: Protective effect in the intramuscular treatment of infected mice; type: in vivo; settings: Proteus mirabilis, A9900, im, read-out: PD50/Treatment
Description: The PD50 (dose in mg/kg required to give protection to 50% of the infected mice) is indicated.
Treatment Schedule: Mice were treated i.m. with drugs 0 and 2 hours

E. cloacae A-9656 = assay: microbe, parasite or virus in culture; settings: Enterobacter cloacae, A9656
E. coli A15119 [5] = assay: Protective effect in the intramuscular treatment of infected mice; type: in vivo; settings: Escherichia coli, A15119, im; i.m., challenge 6 × 10^6 organisms, treated 1 and 3.5 h postinfection; read-out: PD50/Treatment
Description: (§1) 3.5 hours (all others); 5 mice were used in each test.

K. pneumoniae A-9664 [6] = assay: as above; type: in vivo; settings: Klebsiella pneumoniae, A9664, im; i.m., challenge 7 × 10^6 organisms, treated 1 and 3.5 h postinfection; read-out: PD50/Treatment
Description: as §1

S. aureus A-9606 = assay: as above; type: in vivo; settings: Staphylococcus aureus, A9606, im; i.m., challenge 1 × 10^9 organisms, treated 1 and 3.5 h postinfection; read-out: PD50/Treatment
Description: as §1

P. aeruginosa A20481 = assay: as above; type: in vivo; settings: Pseudomonas aeruginosa, A20481, im; i.m., challenge 3 × 10^4 organisms, treated 0 and 2 h postinfection; read-out: PD50/Treatment
Description: as §1

S. marcescens A20335 = assay: as above; type: in vivo; settings: Serratia marcescens, A20335, im; i.m., challenge 9 × 10^6 organisms, treated 1 and 3.5 h postinfection; read-out: PD50/Treatment
Description: as §1

P. rettgeri A15167-2 = assay: as above; type: in vivo; settings: Providencia rettgeri, A151672, im, read-out: PD50/Treatment
Description: as §1

M. morganii A15149 = assay: as above; type: in vivo; settings: Morganella morganii, A15149, im; i.m., challenge 7 × 10^5 organisms, treated 1 and 3.5 h postinfection; read-out: PD50/Treatment
Description: as §1

P. aeruginosa A20599 = assay: as above; type: in vivo; settings: Pseudomonas aeruginosa, A20599, im; i.m., challenge 9 × 10^4 organisms, treated 0 and 2 h postinfection; read-out: PD50/Treatment
Description: as §1

P. vulgaris A21559 [7] = assay: as above; type: in vivo; settings: Proteus vulgaris, A21559, im; i.m., challenge 4 × 10^5 organisms, treated 0 and 2 h postinfection; read-out: PD50/Treatment
Description: as §1

E. cloacae A-9659 [8] = assay: as above; type: in vivo; settings: Enterobacter cloacae, A9659, im; i.m., challenge 4 × 10^6 organisms, treated 1 and 3.5 h postinfection; read-out: PD50/Treatment
Description: as §1

P. aeruginosa A-9843a [9] = assay: as above; type: in vivo; settings: Pseudomonas aeruginosa, A9843A, im, challenge 3 × 10^4 organisms, treated 0 and 2 h postinfection; read-out: PD50/Treatment
Description: as §1

in vivo = settings: mouse
B. fragilis A22863 = assay: microbe, parasite or virus in culture; settings: Bacteroides fragilis
[10] = Toxicity after intracranial administration to mice; settings: mouse, in vivo
E. cloacae A-9659 [11] = assay: microbe, parasite or virus in culture; settings: Enterobacter cloacae, A9659
S. pyogenes A-9604 = assay: In vitro MIC, tube dilution in Nutrient Broth, overnight at 37° C.; type: cell-based; settings: Streptococcus pyogenes, A9604
S. marcescens A20019 = assay: microbe, parasite or virus in culture; settings: Serratia marcescens
S. aureus A-9537 = assay: In vitro MIC, tube dilution in Nutrient Broth, overnight at 37° C.; type: cell-based; settings: Staphylococcus aureus
B. fragilis A22053 = assay: microbe, parasite or virus in culture; settings: Bacteroides fragilis
H. influenzae A21518 = assay: In vitro MIC, tube dilution in Nutrient Broth, overnight at 37° C.; type: cell-based; settings: Haemophilus influenzae
P. aeruginosa A-9843A [12] = assay: as above; type: cell-based; settings: Pseudomonas aeruginosa, A9843A
B. fragilis A22862 = assay: as above; type: cell-based; settings: Bacteroides fragilis
[13] = system: S. aureus A15097 (Meth-res.); assay: microbe, parasite or virus in culture; type: cell-based; settings: Staphylococcus aureus
P. vulgaris A21559 [14] = assay: In vitro MIC, tube dilution in Nutrient Broth, overnight at 37° C.; type: cell-based; settings: Proteus vulgaris
S. faecalis A20688 = assay: as above; type: cell-based; settings: Enterococcus faecalis
S. pneumoniae A-9585 = assay: as above; type: cell-based; settings: Streptococcus pneumoniae, A9585
K. pneumoniae A-9664 [15] = assay: microbe, parasite or virus in culture; settings: Klebsiella pneumoniae, A9664
[16] = Blood levels in mice after intramuscular administration; type: in vivo; settings: mouse, im, 20 mg/kg i.m.
Text: *t1/2refers to halflife in minutes
**AUC refers to the area under the curve

E. coli A20341-1 = assay: In vitro MIC, tube dilution in Nutrient Broth, overnight at 37° C.; type: cell-based
P. morganii A15153 = assay: microbe, parasite or virus in culture; settings: Morganella morganii
H. influenzae A20178 = assay: In vitro MIC, tube dilution in Nutrient Broth, overnight at 37° C.; type: cell-based; settings: Haemophilus influenzae
[17] = Urinary recovery after intramuscular administration to mice; type: in vivo; settings: mouse, urine, im, 20 mg/kg, 20 mg/kg i.m., read-out: Urinary recovery, Percentage of Dose Recovered
Text: | a single test; 4 mice per compound.

Pseudomonas species = settings: in words; prior art; cited from earlier work

In the case of `C[C@@H](O)[C@H]1C(=O)N2C(C(=O)[O-])=C(SCC[S+]3CCCC3)C[C@H]12` [Example 1, 3-[2-(1-tetrahydrothiophenium)ethylthio]-6α-[1-(R)-hydroxyethyl]-7-oxo-1-azabicyclo[3.2.0]hept-2-ene-2-carboxylate], the MIC (K. pneumoniae A20468) is reported as 0.13 µg/mL (≈ 0.378 µM), the MIC (P. mirabilis A-9900 [1]) is reported as 0.13 µg/mL (≈ 0.378 µM) and the MIC (H. influenzae A-9833) is reported as 8 µg/mL (≈ 23.3 µM). The MIC [2] was 0.016 µg/mL (≈ 0.0466 µM), the MIC (E. coli A15119 [3]; A15119, E. coli A15119 (10^-2)) was 0.06 µg/mL (≈ 0.175 µM) and the MIC (E. coli A15119 [3]; A15119, E. coli A15119 (10^-3)) was 0.06 µg/mL (≈ 0.175 µM). It also gave an MIC (E. coli A15119 [3]; E. coli A15119 (10^-4 dil.), read-out: MIC) of 0.03 µg/mL (≈ 0.0873 µM), an MIC (H. influenzae A21522) of 8 µg/mL (≈ 23.3 µM) and an ED50 (P. mirabilis A-9900 [4]) of 7.7 mg/kg. For the same molecule, the MIC (E. cloacae A-9656) was 0.13 µg/mL (≈ 0.378 µM), the ED50 (E. coli A15119 [5]) was 1.6 mg/kg and the ED50 (K. pneumoniae A-9664 [6]) was 5 mg/kg. For the same molecule, the ED50 (S. aureus A-9606) was 0.19 mg/kg, the ED50 (P. aeruginosa A20481) was 0.8 mg/kg and the ED50 (S. marcescens A20335) was 5 mg/kg. For the same molecule, the ED50 (P. rettgeri A15167-2) was 8.7 mg/kg, the ED50 (M. morganii A15149) was 3.3 mg/kg and the ED50 (P. aeruginosa A20599) was 1.3 mg/kg. For the same molecule, the ED50 (P. vulgaris A21559 [7]) was 3.3 mg/kg, the ED50 (E. cloacae A-9659 [8]) was 1.3 mg/kg and the ED50 (P. aeruginosa A-9843a [9]) was 0.6 mg/kg. For the same molecule, the NOAEL (in vivo) was about 5 mg/kg, the MIC (B. fragilis A22863) was 0.06 µg/mL (≈ 0.175 µM) and the LD50 [10] was over 40 mg/kg. It also gave an MIC (E. cloacae A-9659 [11]) of 0.13 µg/mL (≈ 0.378 µM), an MIC (S. pyogenes A-9604) of 4 ng/mL (≈ 0.0116 µM) and an MIC (S. marcescens A20019) of 0.06 µg/mL (≈ 0.175 µM). It also gave an MIC (S. aureus A-9537; A9537, S. aureus A-9537) of 0.008 µg/mL (≈ 0.0233 µM), an MIC (S. aureus A-9537; A9537, S. aureus A-9537 +50% serum) of 0.03 µg/mL (≈ 0.0873 µM) and an MIC (B. fragilis A22053) of 0.06 µg/mL (≈ 0.175 µM). It also gave an MIC (H. influenzae A21518) of 8 µg/mL (≈ 23.3 µM), an MIC (P. aeruginosa A-9843A [12]) of 1 µg/mL (≈ 2.91 µM) and an MIC (B. fragilis A22862) of 0.06 µg/mL (≈ 0.175 µM). The MIC [13] was 2 µg/mL (≈ 5.82 µM), the MIC (P. vulgaris A21559 [14]) was 0.03 µg/mL (≈ 0.0873 µM) and the MIC (S. faecalis A20688) was 0.5 µg/mL (≈ 1.46 µM). For the same molecule, the MIC (S. pneumoniae A-9585) was 2 ng/mL (≈ 0.00582 µM), the MIC (K. pneumoniae A-9664 [15]) was 0.06 µg/mL (≈ 0.175 µM) and the AUC [16] was 7400 ng·h/mL. For the same molecule, the half-life [16] was 9 min, the MIC (E. coli A20341-1; E. coli A20341-1 (10^-3)) was 0.03 µg/mL (≈ 0.0873 µM) and the MIC (E. coli A20341-1; Escherichia coli, A203411, E. coli A20341-1 (10^-2)) was 0.06 µg/mL (≈ 0.175 µM). It also gave an MIC (E. coli A20341-1; Escherichia coli, A203411, E. coli A20341-1 (10^-4), read-out: MIC) of 0.03 µg/mL (≈ 0.0873 µM), an MIC (P. morganii A15153) of 0.06 µg/mL (≈ 0.175 µM) and an MIC (H. influenzae A20178) of 8 µg/mL (≈ 23.3 µM). The dose excreted at 3 h ([17]; 0-3 hours) was 15.6%, the dose excreted at 24 h ([17]; 0-24 hours) was 17.7 ± 2.9% and the dose excreted at 6 h ([17]; 3-6 hours) was 2.1%. The dose excreted at 24 h ([17]; 6-24 hours) was under 0.2%.
For `C[C@@H](O)[C@H]1C(=O)N2C(C(=O)O)=C(SCCN)C[C@H]12` [thienamycin], the “activity against various Pseudomonas species” value (Pseudomonas species) is listed as “notable activity”.
